Where “and” joins values, the source holds several entries; their conditions need not be identical. Equal values may be shown once.
Tested on: ZR-75-1 cells
Assay: NanoString human kinome mRNA quantification
Type: cell-based
Settings: for Normalised counts: single replicates
From the text: Human mRNAs were hybridised to NanoString human kinome and control code sets, then subjected to quantification using NanoString software. […] To permit data compaction, and simple kinome‐wide comparisons, the fold changes are log2 transformed. […] Cell pellets were resuspended at a concentration of ~6,500 cells/μl in RLT buffer (Qiagen). […] For total copy numbers, triplicate normalised count values were averaged, and to calculate fold induction, means were divided by triplicate mean values from matched DMSO controls. P‐values were calculated using unpaired t‐test (GraphPad Prism software) by employing treated and control count data for each kinase mRNA.

With `NC1(c2ccc(-c3nc4ccn5c(=O)[nH]nc5c4cc3-c3ccccc3)cc2)CCC1` [MK-2206] the “CDK18 normalised counts (replicates)” value (CDK18 mRNA) was 93.28 and 102.4 and 103.9, the “CDK19 average normalised counts” value (CDK19 mRNA) was 336.707 and the “CDK19 normalised counts (replicates)” value (CDK19 mRNA) was 340.52 and 347.39 and 322.21. The “CDK20 average normalised counts” value (CDK20 mRNA) was 89.7167, the “CDK20 normalised counts (replicates)” value (CDK20 mRNA) was 106.01 and 80.68 and 82.46 and the “CDKL1 average normalised counts” value (CDKL1 mRNA) was 1. For the same molecule, the “CDKL1 normalised counts (replicates)” value (CDKL1 mRNA) was 1, the “CDKL2 average normalised counts” value (CDKL2 mRNA) was 5.853 and the “CDKL2 normalised counts (replicates)” value (CDKL2 mRNA) was 6.93 and 5.97 and 4.66. The “CDKL3 average normalised counts” value (CDKL3 mRNA) was 93.1667, the “CDKL3 normalised counts (replicates)” value (CDKL3 mRNA) was 98.74 and 82.42 and 98.34 and the “CDKL4 average normalised counts” value (CDKL4 mRNA) was 49.8833. The “CDKL4 normalised counts (replicates)” value (CDKL4 mRNA) was 49.65 and 57.23 and 42.77, the “CDKL5 average normalised counts” value (CDKL5 mRNA) was 46.4467 and the “CDKL5 normalised counts (replicates)” value (CDKL5 mRNA) was 46.93 and 52.02 and 40.39. For the same molecule, the “CHEK1 average normalised counts” value (CHEK1 mRNA) was 416.797, the “CHEK1 normalised counts (replicates)” value (CHEK1 mRNA) was 440.51 and 390.82 and 419.06 and the “CHEK2 average normalised counts” value (CHEK2 mRNA) was 813.71. The “CHEK2 normalised counts (replicates)” value (CHEK2 mRNA) was 824.09 and 812.16 and 804.88, the “CHUK average normalised counts” value (CHUK mRNA) was 732.773 and the “CHUK normalised counts (replicates)” value (CHUK mRNA) was 715.01 and 761.78 and 721.53. The “CIT average normalised counts” value (CIT mRNA) was 394.403, the “CIT normalised counts (replicates)” value (CIT mRNA) was 393.24 and 389.96 and 400.01 and the “CLK1 average normalised counts” value (CLK1 mRNA) was 994.453. For the same molecule, the “CLK1 normalised counts (replicates)” value (CLK1 mRNA) was 974.07 and 1043.25 and 966.04, the “CLK2 average normalised counts” value (CLK2 mRNA) was 1169.5 and the “CLK2 normalised counts (replicates)” value (CLK2 mRNA) was 1152.23 and 1182.25 and 1174.03. For the same molecule, the “CLK3 average normalised counts” value (CLK3 mRNA) was 710.143, the “CLK3 normalised counts (replicates)” value (CLK3 mRNA) was 731.38 and 705.31 and 693.74 and the “CLK4 average normalised counts” value (CLK4 mRNA) was 709.387. The “CLK4 normalised counts (replicates)” value (CLK4 mRNA) was 719.56 and 687.07 and 721.53, the “COL4A3BP average normalised counts” value (COL4A3BP mRNA) was 420.653 and the “COL4A3BP normalised counts (replicates)” value (COL4A3BP mRNA) was 415.06 and 433.39 and 413.51. The “CPNE3 normalised counts (replicates)” value (CPNE3 mRNA) was 2313.35, the “CSF1R average normalised counts” value (CSF1R mRNA) was 1 and the “CSF1R normalised counts (replicates)” value (CSF1R mRNA) was 1. For the same molecule, the “CSK average normalised counts” value (CSK mRNA) was 629.517, the “CSK normalised counts (replicates)” value (CSK mRNA) was 633.21 and 603.67 and 651.67 and the “CSNK1A1L average normalised counts” value (CSNK1A1L mRNA) was 2.067. The “CSNK1A1L normalised counts (replicates)” value (CSNK1A1L mRNA) was 4.2 and 1 (2×), the “CSNK1A1 average normalised counts” value (CSNK1A1 mRNA) was 854.287 and the “CSNK1A1 normalised counts (replicates)” value (CSNK1A1 mRNA) was 855.9 and 833.01 and 873.95. The “CSNK1D average normalised counts” value (CSNK1D mRNA) was 6324.07, the “CSNK1D normalised counts (replicates)” value (CSNK1D mRNA) was 6300.6 and 6273.94 and 6397.68 and the “CSNK1E average normalised counts” value (CSNK1E mRNA) was 1485.08. The “CSNK1E normalised counts (replicates)” value (CSNK1E mRNA) was 1520.36 and 1448.08 and 1486.81, the Average normalised counts (CSNK1G1 mRNA) was 1243.9 and the Normalised counts (CSNK1G1 mRNA) was 1266.76 and 1245.67 and 1219.28. For the same molecule, the Average normalised counts (CSNK1G2 mRNA) was 674.087, the Normalised counts (CSNK1G2 mRNA) was 671.38 and 671.43 and 679.45 and the Average normalised counts (CSNK1G3 mRNA) was 1032.23. For the same molecule, the Normalised counts (CSNK1G3 mRNA) was 1024.97 and 1049.33 and 1022.4, the Average normalised counts (CSNK2A1 mRNA) was 568.443 and the Normalised counts (CSNK2A1 mRNA) was 546.86 and 575.87 and 582.6. The Average normalised counts (CSNK2A2 mRNA) was 157.413, the Normalised counts (CSNK2A2 mRNA) was 146.91 and 157.13 and 168.2 and the Average normalised counts (DAPK1 mRNA) was 21.41. For the same molecule, the Normalised counts (DAPK1 mRNA) was 22.38 and 18.13 and 23.72, the Average normalised counts (DAPK2 mRNA) was 44.4967 and the Normalised counts (DAPK2 mRNA) was 37.84 and 52.88 and 42.77. The Average normalised counts (DCLK1 mRNA) was 64.6967, the Normalised counts (DCLK1 mRNA) was 61.47 and 58.1 and 74.52 and the Average normalised counts (DCLK2 mRNA) was 1. It also gave a Normalised counts (DCLK2 mRNA) of 1, an Average normalised counts (DCLK3 mRNA) of 1 and a Normalised counts (DCLK3 mRNA) of 1. The Normalised counts (DDR1 mRNA) was 2268.77, the Average normalised counts (DDR2 mRNA) was 24.12 and the Normalised counts (DDR2 mRNA) was 24.2 and 26.82. The Average normalised counts (DMPK mRNA) was 79.4267, the Normalised counts (DMPK mRNA) was 89.65 and 78.08 and 70.55 and the Average normalised counts (DSTYK mRNA) was 288.937. For the same molecule, the Normalised counts (DSTYK mRNA) was 315.98 and 310.3, the Average normalised counts (DYRK1A mRNA) was 1263.91 and the Normalised counts (DYRK1A mRNA) was 1248.58 and 1277.81 and 1265.33. The Average normalised counts (DYRK1B mRNA) was 113.827, the Normalised counts (DYRK1B mRNA) was 104.19 and 111.96 and 125.33 and the Average normalised counts (DYRK2 mRNA) was 852.053. The Normalised counts (DYRK2 mRNA) was 855.9 and 810.43 and 889.83, the Average normalised counts (DYRK3 mRNA) was 83.6267 and the Normalised counts (DYRK3 mRNA) was 80.56 and 90.24 and 80.08. For the same molecule, the Average normalised counts (DYRK4 mRNA) was 50.6933, the Normalised counts (DYRK4 mRNA) was 52.38 and 53.75 and 45.95 and the Average normalised counts (EEF2K mRNA) was 449.027. The Normalised counts (EEF2K mRNA) was 425.05 and 457.72 and 464.31 and the Average normalised counts (EGFR mRNA) was 78.07.
